The test system of the assay is P388 leukemia ip, CD2F1 mice, survival T/C. Nature of the assay: NCI In Vivo Anticancer Drug Screen. Data for tumor model P388 Leukemia (intraperitoneal) in CD2F1 (CDF1) mice. The settings on record: endpoint: median survival time, higher = longer survival. The method, boiled down: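 Mice carrying the transplanted tumor received test compound or vehicle. Survival was recorded in each group, and the value is the treated-group measurement divided by that of the vehicle-treated control group.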

[1] abbreviates: dose: 50.0 mg/kg/injection, schedule: Q01DX009 (ip), vehicle: saline.
The mark [2] stands for this setting: dose: 100.0 mg/kg/injection, schedule: Q01DX009 (ip), vehicle: saline.
Setting [3] is: dose: 200.0 mg/kg/injection, schedule: Q01DX009 (ip), vehicle: saline.
[4] abbreviates: dose: 50.0 mg/kg/injection, schedule: Q01DX009 (ip), vehicle: Klucel (hydroxypropylcellulose) (HPC).
Setting [5] is: dose: 100.0 mg/kg/injection, schedule: Q01DX009 (ip), vehicle: Klucel (hydroxypropylcellulose) (HPC).
Where [6] appears, read: dose: 200.0 mg/kg/injection, schedule: Q01DX009 (ip), vehicle: Klucel (hydroxypropylcellulose) (HPC).
Where [7] appears, read: dose: 60.0 mg/kg/injection, schedule: Q01DX005 (ip), vehicle: saline with Tween-80.
[8] abbreviates: dose: 120.0 mg/kg/injection, schedule: Q01DX005 (ip), vehicle: saline with Tween-80.
Setting [9] is: dose: 240.0 mg/kg/injection, schedule: Q01DX005 (ip), vehicle: saline with Tween-80.
Setting [10] is: dose: 100.0 mg/kg/injection, schedule: Q04DX003 (ip), vehicle: saline with Tween-80.
The mark [11] stands for this setting: dose: 200.0 mg/kg/injection, schedule: Q04DX003 (ip), vehicle: saline with Tween-80.
The mark [12] stands for this setting: dose: 100.0 mg/kg/injection, schedule: Q04DX003 (ip), vehicle: Klucel (hydroxypropylcellulose) (HPC).
Setting [13] is: dose: 200.0 mg/kg/injection, schedule: Q04DX003 (ip), vehicle: Klucel (hydroxypropylcellulose) (HPC).
Setting [14] is: dose: 400.0 mg/kg/injection, schedule: Q04DX003 (ip), vehicle: Klucel (hydroxypropylcellulose) (HPC).
Setting [15] is: dose: 100.0 mg/kg/injection, schedule: Q01DX005 (ip), vehicle: saline with Tween-80.
The mark [16] stands for this setting: dose: 200.0 mg/kg/injection, schedule: Q01DX005 (ip), vehicle: saline with Tween-80.

Values joined by “and” are separate entries in the source; they are usually repeats but may differ in a detail not shown here. Equal entries are not always repeated. Toxic doses and inconclusive results are not listed.

Turning to `CC([NH-])C[NH-].O=S(=O)(O)O.[Pt+2]` (stereo not given), the T/C (dose: 3.12 mg/kg/injection, schedule: Q04DX002 (ip), vehicle: saline) was 154 % of control; the T/C (dose: 12.5 mg/kg/injection, schedule: Q04DX002 (ip), vehicle: saline) is 90 % of control and 118 % of control.
For the compound `C1N2CN3CN1CN(C2)C3` (tested in a mixture with another compound), the T/C is 107 % of control under setting [1], 101 % of control under setting [2] and 107 % of control under setting [3].
With `O=C(Oc1ccccc1)c1ccc(C(=O)Oc2ccccc2)cc1`, the T/C reads like this: under setting [4], 108 % of control; under setting [5], 102 % of control; under setting [6], 101 % of control.
`O=C(O)CC(NC(=O)CCl)C(=O)O` (stereo not given): the T/C under setting [1] was 99 % of control and 101 % of control; the T/C under setting [2] was 100 % of control and 101 % of control; the T/C under setting [3] was 101 % of control and 92 % of control.
In the case of `Cc1nc2c(ccc3cc4ccccc4cc32)cc1N(CCO)CCO`, the T/C (dose: 50.0 mg/kg/injection, schedule: Q01DX009 (ip), vehicle: saline + Tween-80 + alcohol) is 110 % of control; the T/C (dose: 100.0 mg/kg/injection, schedule: Q01DX009 (ip), vehicle: saline + Tween-80 + alcohol) was 108 % of control; the T/C (dose: 200.0 mg/kg/injection, schedule: Q01DX009 (ip), vehicle: saline + Tween-80 + alcohol) is 99 % of control.
Regarding `COc1ccc(Cc2cc(C(C)(C)C)cc(C(C)(C)C)c2OC)cc1`, the T/C (dose: 50.0 mg/kg/injection, schedule: Q01DX005 (ip), vehicle: distilled water + alcohol) is 99 % of control; the T/C (dose: 100.0 mg/kg/injection, schedule: Q01DX005 (ip), vehicle: distilled water + alcohol) is 96 % of control; the T/C (dose: 200.0 mg/kg/injection, schedule: Q01DX005 (ip), vehicle: distilled water + alcohol) is 99 % of control.
`O=C1COC(C(O)(c2ccccc2)c2ccccc2)C(=O)N1` (stereo not given): the T/C under setting [7] is 107 % of control, the T/C under setting [8] is 102 % of control and the T/C under setting [9] is 98 % of control.
With `Cc1ccc2c(c1)CCCN2C=O`, the T/C (dose: 50.0 mg/kg/injection, schedule: Q04DX003 (ip), vehicle: saline with Tween-80) was 105 % of control; the T/C under setting [10] was 100 % of control; the T/C under setting [11] was 110 % of control.
On to `C/[N+]([O-])=C/c1ccccc1`, for which the T/C is, setting by setting: under setting [12], 104 % of control; under setting [13], 106 % of control; under setting [14], 108 % of control.
As to `CCC(=O)N1C(=O)C(C)C23c4cc(OC)c(OC)cc4C(=O)N2CCCN13` (stereo not given), the T/C by setting is: (dose: 60.0 mg/kg/injection, schedule: Q01DX005 (ip), vehicle: Klucel (hydroxypropylcellulose) (HPC)) 100 % of control; (dose: 120.0 mg/kg/injection, schedule: Q01DX005 (ip), vehicle: Klucel (hydroxypropylcellulose) (HPC)) 94 % of control; (dose: 240.0 mg/kg/injection, schedule: Q01DX005 (ip), vehicle: Klucel (hydroxypropylcellulose) (HPC)) 90 % of control.
Regarding `O=C1NNCc2c1oc1ccccc21`, the T/C by setting is: (dose: 6.25 mg/kg/injection, schedule: Q01DX009 (ip), vehicle: saline with Tween-80) 95 % of control; (dose: 12.5 mg/kg/injection, schedule: Q01DX009 (ip), vehicle: saline with Tween-80) 92 % of control; (dose: 25.0 mg/kg/injection, schedule: Q01DX009 (ip), vehicle: saline with Tween-80) 99 % of control.
On to `CCOC(=O)C(=Cc1c[nH]c2ccc(Br)cc12)C(=O)OCC`, for which the T/C (dose: 100.0 mg/kg/injection, schedule: Q01DX009 (ip), vehicle: saline with Tween-80) is 104 % of control; the T/C under setting [10] was 109 % of control; the T/C (dose: 200.0 mg/kg/injection, schedule: Q01DX009 (ip), vehicle: saline with Tween-80) was 87 % of control; the T/C under setting [11] is 109 % of control; the T/C (dose: 400.0 mg/kg/injection, schedule: Q01DX009 (ip), vehicle: saline with Tween-80) is 100 % of control; the T/C (dose: 400.0 mg/kg/injection, schedule: Q04DX003 (ip), vehicle: saline with Tween-80) is 100 % of control.
Regarding `Nc1c(C(=O)NCc2ccccc2)c2nc3c(C(=O)NCc4ccccc4)cccc3oc-2cc1=O`, the T/C is, setting by setting: (dose: 1.56 mg/kg/injection, schedule: Q01DX005 (ip), vehicle: saline with Tween-80) 99 % of control; (dose: 3.12 mg/kg/injection, schedule: Q01DX005 (ip), vehicle: saline with Tween-80) 89 % of control; (dose: 6.25 mg/kg/injection, schedule: Q01DX005 (ip), vehicle: saline with Tween-80) 89 % of control; under setting [15], 86 % of control; under setting [16], 100 % of control.
For `C[N+](C)(C)CC(=O)NNC(=O)CCn1[nH]c(=O)c(Cl)c(Cl)c1=O`, the T/C was 104 % of control under setting [7], 99 % of control under setting [8] and 97 % of control under setting [9].
For the compound `O=C(CCSCCC(=O)N/N=C/C(O)C(O)C(O)C(O)CO)N/N=C/C(O)C(O)C(O)C(O)CO` (stereo not given), the T/C is, setting by setting: (dose: 50.0 mg/kg/injection, schedule: Q01DX005 (ip), vehicle: saline with Tween-80) 99 % of control; (dose: 50.0 mg/kg/injection, schedule: Q01DX005 (ip), vehicle: saline) 97 % of control; under setting [15], 98 % of control; (dose: 100.0 mg/kg/injection, schedule: Q01DX005 (ip), vehicle: saline) 98 % of control; under setting [16], 96 % of control; (dose: 200.0 mg/kg/injection, schedule: Q01DX005 (ip), vehicle: saline) 99 % of control.
Consider `COc1cc2c(/C=N/Nc3ccccc3[N+](=O)[O-])c(Cl)[nH]c2cc1C`, for which the T/C (dose: 50.0 mg/kg/injection, schedule: Q01DX001 (ip), vehicle: Klucel (hydroxypropylcellulose) (HPC)) was 107 % of control; the T/C (dose: 100.0 mg/kg/injection, schedule: Q01DX001 (ip), vehicle: Klucel (hydroxypropylcellulose) (HPC)) is 98 % of control and 87 % of control; the T/C (dose: 200.0 mg/kg/injection, schedule: Q01DX001 (ip), vehicle: Klucel (hydroxypropylcellulose) (HPC)) was 98 % of control and 87 % of control; the T/C (dose: 400.0 mg/kg/injection, schedule: Q01DX001 (ip), vehicle: Klucel (hydroxypropylcellulose) (HPC)) is 90 % of control.
For the compound `CC1CCC2(CC1)CC(=O)N(N)C2=O` (stereo not given), the T/C under setting [7] was 104 % of control, the T/C under setting [8] was 105 % of control and the T/C under setting [9] is 108 % of control.
`CC(C)(OCc1ccccc1)c1ccccc1P(c1ccccc1)c1ccccc1`: the T/C is 101 % of control under setting [4], 101 % of control under setting [5] and 110 % of control under setting [6].
As for `O=C(c1ccc(C(=O)N2CC2)cc1)N1CC1`, the T/C was 118 % of control (dose: 10.0 mg/kg/injection, schedule: Q04DX003 (ip), vehicle: saline with Tween-80) and 109 % of control (dose: 20.0 mg/kg/injection, schedule: Q04DX003 (ip), vehicle: saline with Tween-80).
For `COc1cccc(N2CCN(CC(O)COc3cc4c(c5c3CCCC5)CCCC4)CC2)c1` (stereo not given), the T/C was 93 % of control under setting [12], 92 % of control under setting [13] and 91 % of control under setting [14].
As for `O=S(=O)(Cc1ccc(Cl)cc1)Cc1ccc(Cl)cc1`, the T/C is 100 % of control (dose: 100.0 mg/kg/injection, schedule: Q04DX003 (ip), vehicle: saline sonified); 100 % of control (dose: 200.0 mg/kg/injection, schedule: Q04DX003 (ip), vehicle: saline sonified); 90 % of control (dose: 400.0 mg/kg/injection, schedule: Q04DX003 (ip), vehicle: saline sonified).
As for `Oc1ccccc1-c1cc(-c2ccccc2)nc(NCCCCCCNc2nc(-c3ccccc3)cc(-c3ccccc3O)n2)n1`, the T/C runs as follows: (dose: 50.0 mg/kg/injection, schedule: Q01DX005 (ip), vehicle: Klucel (hydroxypropylcellulose) (HPC)) 90 % of control; (dose: 100.0 mg/kg/injection, schedule: Q01DX005 (ip), vehicle: Klucel (hydroxypropylcellulose) (HPC)) 90 % of control.
As for `[Fe]=[Se]`, the T/C is 96 % of control under setting [7], 86 % of control under setting [8] and 107 % of control under setting [9].

The values above are taken from PubChem BioAssay AID330 (DTP/NCI, 2004).
